Data on five molecules can be found in ChEMBL document CHEMBL4011630 (J Med Chem, 2017).

The structures appear in SMILES notation. Where a SMILES comes first, the peptide text is derived from it. Bridges are numbered along the chain shown (N, C = ends). [ ]: non-standard residue; d: D form. hMet = CSCCC[C@H](N)C(=O)O Some results are limits rather than exact numbers.

For assay [1], the target named is T1, Neuronal acetylcholine receptor; alpha3/beta4 (Rattus norvegicus, UniProt P04757+P12392). Put plainly: Antagonist activity at rat alpha3beta4 nACHR expressed in xenopous laevis oocyte assessed as inhibition of ACh induced channel current after 5 mins at -70 mV holding potential by two electrode voltage clamp method.
The target of assay [2] is T2, Nicotinic acetylcholine receptor alpha6/alpha3/beta4 (Rattus norvegicus, UniProt P04757+P12392+P43143). Briefly: Antagonist activity at rat alpha6/alpha3beta4 nACHR expressed in xenopous laevis oocyte assessed as inhibition of ACh induced channel current after 5 mins at -70 mV holding potential by two electrode voltage clamp method.
The next assay is filed under the species Rattus norvegicus. Put plainly: Selectivity ratio of IC50 for rat alpha6/alpha3beta4 nACHR expressed in xenopous laevis oocyte after 6 to 10 mins to IC50 for rat alpha3beta4 nACHR expressed in xenopous laevis oocyte after 6 to 10 mins.
Assay [3] has as its target T1, Neuronal acetylcholine receptor; alpha3/beta4. Put plainly: Antagonist activity at rat alpha3beta4 nACHR expressed in xenopous laevis oocyte assessed as inhibition of ACh induced channel current after 6 to 10 mins at -70 mV holding potential by two electrode voltage clamp method.
Assay [4] deals with T2, Nicotinic acetylcholine receptor alpha6/alpha3/beta4. Briefly: Antagonist activity at rat alpha6/alpha3beta4 nACHR expressed in xenopous laevis oocyte assessed as inhibition of ACh induced channel current after 6 to 10 mins at -70 mV holding potential by two electrode voltage clamp method.

T1 sequence (P04757 whole entry): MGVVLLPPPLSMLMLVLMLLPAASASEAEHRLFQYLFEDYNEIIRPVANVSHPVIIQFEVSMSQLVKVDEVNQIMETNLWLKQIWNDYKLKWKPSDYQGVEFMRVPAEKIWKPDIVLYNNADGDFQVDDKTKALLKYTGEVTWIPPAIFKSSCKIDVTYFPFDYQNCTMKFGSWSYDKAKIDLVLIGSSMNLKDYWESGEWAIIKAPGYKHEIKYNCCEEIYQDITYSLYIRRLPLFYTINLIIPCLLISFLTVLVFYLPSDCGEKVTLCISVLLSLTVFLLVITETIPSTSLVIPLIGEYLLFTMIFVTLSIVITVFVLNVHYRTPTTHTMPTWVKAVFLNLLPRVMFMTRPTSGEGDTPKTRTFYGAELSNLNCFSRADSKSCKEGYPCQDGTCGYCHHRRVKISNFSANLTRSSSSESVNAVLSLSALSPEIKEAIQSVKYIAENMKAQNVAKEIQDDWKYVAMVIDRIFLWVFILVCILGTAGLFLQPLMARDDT
T1 sequence (P12392 whole entry): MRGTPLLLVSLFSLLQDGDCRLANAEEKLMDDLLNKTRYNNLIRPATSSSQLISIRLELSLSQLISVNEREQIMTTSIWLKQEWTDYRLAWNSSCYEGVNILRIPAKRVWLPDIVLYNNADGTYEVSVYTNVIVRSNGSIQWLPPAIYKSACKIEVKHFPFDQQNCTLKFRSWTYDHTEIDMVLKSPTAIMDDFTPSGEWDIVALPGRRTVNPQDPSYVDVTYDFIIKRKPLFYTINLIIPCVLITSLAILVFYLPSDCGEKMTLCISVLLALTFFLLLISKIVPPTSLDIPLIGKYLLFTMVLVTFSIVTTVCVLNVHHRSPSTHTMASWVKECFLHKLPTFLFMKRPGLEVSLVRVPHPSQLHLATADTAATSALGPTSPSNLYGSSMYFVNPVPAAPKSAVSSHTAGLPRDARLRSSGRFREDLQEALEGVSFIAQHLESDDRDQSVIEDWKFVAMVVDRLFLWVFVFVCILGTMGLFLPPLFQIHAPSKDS
T2 sequence (P04757 whole entry): as the sequence (P04757 whole entry) above
T2 sequence (P12392 whole entry): as the sequence (P12392 whole entry) above
T2 sequence (P43143 whole entry): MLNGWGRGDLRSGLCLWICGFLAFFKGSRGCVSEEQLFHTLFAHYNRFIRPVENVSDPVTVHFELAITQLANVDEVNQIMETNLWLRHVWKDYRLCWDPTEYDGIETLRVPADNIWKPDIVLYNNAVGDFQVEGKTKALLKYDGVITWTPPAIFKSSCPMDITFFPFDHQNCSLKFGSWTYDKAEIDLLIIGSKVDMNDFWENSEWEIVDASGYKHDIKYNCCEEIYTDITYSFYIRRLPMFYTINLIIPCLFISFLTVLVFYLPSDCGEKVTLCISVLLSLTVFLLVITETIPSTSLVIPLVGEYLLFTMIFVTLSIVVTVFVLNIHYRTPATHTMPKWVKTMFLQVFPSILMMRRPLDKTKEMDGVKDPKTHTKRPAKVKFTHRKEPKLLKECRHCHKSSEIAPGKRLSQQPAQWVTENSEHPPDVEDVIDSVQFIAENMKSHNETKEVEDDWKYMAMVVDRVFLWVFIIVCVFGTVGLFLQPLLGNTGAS

Consider `CC[C@H](C)[C@@H]1NC(=O)[C@H](C)NC(=O)[C@H](C)NC(=O)[C@@H]2CSSC[C@H](NC(=O)CN)C(=O)N[C@@H](CSSC[C@@H](C(N)=O)NC(=O)[C@H]([C@@H](C)CC)NC(=O)[C@@H]3CCCN3C(=O)[C@H](CO)NC1=O)C(=O)N[C@@H](CO)C(=O)N[C@@H](Cc1cnc[nH]1)C(=O)N1CCC[C@H]1C(=O)N[C@@H](C(C)C)C(=O)N2` (H-GCCSHPVCAAISPIC-NH2; disulfide 2-8, 3-15), for which the values for the IC50 in assay [1] and in assay [2] were 30.7 nM and 101 nM, respectively.

On to `CC[C@H](C)[C@@H]1NC(=O)[C@H](CCC(N)=O)NC(=O)[C@@H]2CCCN2C(=O)[C@H](CC(N)=O)NC(=O)[C@H](Cc2cnc[nH]2)NC(=O)[C@H](C(C)C)NC(=O)[C@H]([C@@H](C)O)NC(=O)[C@@H]2CSSC[C@H](NC(=O)[C@@H]3CCCN3C(=O)[C@H](CC(=O)O)NC(=O)[C@@H](N)CCCNC(=N)N)C(=O)N[C@@H](CSSC[C@@H](C(N)=O)NC1=O)C(=O)N[C@@H](CO)C(=O)N[C@@H](CC(N)=O)C(=O)N1CCC[C@H]1C(=O)N[C@@H](C(C)C)C(=O)N2` (H-RDPCCSNPVCTVHNPQIC-NH2; disulfide 4-10, 5-18), for which the Ratio IC50 in the assay filed under Rattus norvegicus was 0.058.

Turning to `CC[C@H](C)[C@@H]1NC(=O)[C@H](CCC(N)=O)NC(=O)[C@@H]2CCCN2C(=O)[C@H](CC(N)=O)NC(=O)[C@H](Cc2cnc[nH]2)NC(=O)[C@H](C(C)C)NC(=O)[C@H]([C@@H](C)O)NC(=O)[C@@H]2CSSC[C@H](NC(=O)[C@@H]3CCCN3C(=O)[C@H](CC(=O)O)NC(=O)[C@@H](N)CCCN=C(N)N)C(=O)N[C@@H](CSSC[C@@H](C(N)=O)NC1=O)C(=O)N[C@@H](CO)C(=O)N[C@@H](CC(N)=O)C(=O)N1CCC[C@H]1C(=O)N[C@@H](C(C)C)C(=O)N2` (H-RDPCCSNPVCTVHNPQIC-NH2; disulfide 4-10, 5-18), the 50% inhibitory concentration (IC50) turned out to be 518 nM in assay [3] and 30 nM in assay [4].

As for `CC[C@H](C)[C@@H]1NC(=O)[C@@H]2CCCN2C(=O)[C@H](CO)NC(=O)[C@H](CCCSC)NC(=O)[C@H](C)NC(=O)[C@H](CO)NC(=O)[C@@H]2CSSC[C@H](NC(=O)CN)C(=O)N[C@@H](CSSC[C@@H](C(N)=O)NC1=O)C(=O)N[C@@H](CO)C(=O)N[C@@H](Cc1cnc[nH]1)C(=O)N1CCC[C@H]1C(=O)N[C@@H](C)C(=O)N2` (H-GCCSHPACSA[hMet]SPIC-NH2; disulfide 2-8, 3-15), the IC50 in assay [1] and in assay [2] was over 10000 nM in each case.

As for `CC[C@H](C)[C@@H]1NC(=O)[C@@H]2CCCN2C(=O)[C@H](C)NC(=O)[C@H](CCCSC)NC(=O)[C@H](C)NC(=O)[C@H](CO)NC(=O)[C@@H]2CSSC[C@H](NC(=O)CN)C(=O)N[C@@H](CSSC[C@@H](C(N)=O)NC1=O)C(=O)N[C@@H](CO)C(=O)N[C@@H](Cc1cnc[nH]1)C(=O)N1CCC[C@H]1C(=O)N[C@@H](C(C)C)C(=O)N2` (H-GCCSHPVCSA[hMet]APIC-NH2; disulfide 2-8, 3-15), the IC50 in assay [1] amounted to 17.4 nM; in assay [2], 39.3 nM.
